# Measured values published in patent EP2805705B1, “Packaging with one or more administration units comprising a sodium salt of (R)-3-[6-amino-pyridin-3-yl]-2-(1-cyclohexyl-1 H-imidazol-4-yl)-propionic acid” (IP Gesellschaft für Management mbH, priority 2013, dated 2014).
# Columns and labels:
# Format in all cases: physicochemical
# [1] = Dynamic vapor sorption (DVS), DVS-1 instrument, two cycles at 25 °C; details: for weight increase in the sorption step: 25 °C
# [2] = Determination of solubility in a mixture of acetone and water (4:1, by volume); details: acetone and water (4:1, by volume)
# Method: Determination of solubility: For the determination of the solubility in a mixture of acetone and water (4:1, by volume), samples of 0.5 mg to 50 mg of the test substances were suspended in a defined amount of the solvent (800 mg to 1200 mg) in screw cap vials with a magnetic stirring bar, which were placed in a temperature-controlled multiple stirring device equipped for transmission measurement (Avantium Crystal 16). With stirring at 700 rpm, the vials were cooled from room temperature to 0 °C and then heated to 60 °C with a heating rate of 3 °C/h, kept at 60 °C for 2 h and cooled again to 0 °C with a cooling rate of 3 °C/h. By means of transmission measurement it was determined whether the sample was dissolved (100 % transmission), or crystals were present. For polymorph 1 ({drug5b}), polymorph 2 ({drug5c}), hydrate 1 ({drug5e}) and hydrate 2 ({drug5f}) of compound (V) the following solubilities in a mixture of acetone and water (4:1, by volume) were determined.
# [3] = Maturation experiments (slurry conversion), relative stability; details: among polymorphs 1, 2 and hydrate 1, suspensions kept five days at 20 °C, then dried at 40°C and <100 mbar
# Method: Maturation experiments: By maturation experiments (slurry conversion) at 20 °C the relative stability of polymorphs 1 ({drug5b}) and 2 ({drug5c}) and hydrate 1 ({drug5e}) was investigated. A polymorph mixture of 81 mg (Mixture of Polymorph 1 ({drug5b}) and Polymorph 2 ({drug5c})), 83 mg of Polymorph 1 ({drug5b}) and 60 mg of hydrate 1 ({drug5e}) was prepared. The mixture was subjected to XRPD analysis to confirm the presence of all three polymorphs and then distributed into five capillaries. These samples were kept in suspension at 20°C for five days. After X-ray powder diffraction measurement of the suspensions these were dried over night at 40°C and <100mbar and again subjected to X-ray diffraction. Maturation experiments (a) to (e) were performed under the specified conditions, starting with the polymorph mixture described above. (a) The polymorph mixture was suspended in water. After stirring the suspension for five days at 20 °C, the suspension was analyzed via XRPD and a mixture of polymorph 1 ({drug5b}) and hydrate 1 ({drug5e}) was proven. […] (b) The polymorph mixture was suspended in water/methanol 1:1 (vol.: vol.). […] (c) The polymorph mixture was suspended in 2-propanol. […] (d) The polymorph mixture was suspended in acetone. […] (e) The polymorph mixture was suspended in ethylacetate. […]
# [4] = Solubility in water (statement, no method given); details: result in words
# [5] = Physical stability on storage for 14 days (XRPD, thermogravimetry); details: stored 14 days under conditions (A), (B), (C) and (D)
# Method: Example 3: Physical stability: Representative samples of the crystalline salt of (R)-3-(6-amino-pyridin-3-yl)-2-(1-cyclohexyl-1 H-imidazol-4-yl)-propionic acid ethyl ester with naphthalene-1,5-disulfonic acid as in Example 1 are produced and are stored for 14 days under the conditions (A), (B), (C) and (D): (A) 50°C; (B) 50°C and 80% relative humidity; (C) 80°C; (D) 80°C and 80% relative humidity.
# [6] = Chiral stability on storage for 14 days (chiral HPLC)
# Method: Example 4: Chiral stability: Representative samples of the crystalline salt of (R)-3-(6-amino-pyridin-3-yl)-2-(1-cyclohexyl-1 H-imidazol-4-yl)-propionic acid ethyl ester with naphthalene-1,5disulfonic acid were prepared as described in example 1 amd stored for 14 days under described conditions (A), (B), (C) and (D): Results:
# The enantiomeric purity of the sample measured at the beginning of measurement was 99.0%. Under the storage conditions 50°C (A) and 50°C and 80% relative humidity (B) a small increase of 0.2% of the (S)-enantiomers was observed. Under storage conditions 80°C (C), no change can be observed. Under the storage condition 80°C and 80% relative humidity (D) an increase of 2.7% of (S)-enantiomers was are observed. The measurements were made as described in Example 1 by chromatography on a chiral phase, Chiral HPLC (Chiralcel OD-H/84 (250x4.6 mm), heptane: isopropanol: acetonitrile 15:1: 0.5 +0.1% diethylamine (DEA), 30°C, 1 ml / min): Rt = 27.01 min.
smiles,measurement,setting,value
"CNc1nccc(-c2cc3cc(C(=O)N[C@@H](CN(c4ccccc4)c4ncccn4)C(N)=O)ccc3[nH]2)n1 [Polymorph 1, 2-(2-methylamino-pyrimidin-4-yl)-1 H-indole-5-carboxylic acid [(S)-1-carbamoyl-2-(phenyl-pyrimidin-2-yl-amino)-ethyl]-amide]",weight increase in the sorption step,"[1]; Relative humidity 40 %, first cycle",0.5 % / 0.5%
same,weight increase in the sorption step,"[1]; Relative humidity 40 %, second cycle",0.5 % / 0.5%
same,weight increase in the sorption step,"[1]; Relative humidity 60 %, first cycle",0.6 % / 0.6%
same,weight increase in the sorption step,"[1]; Relative humidity 60 %, second cycle",0.6 % / 0.6%
same,weight increase in the sorption step,"[1]; Relative humidity 80 %, first cycle",0.9 % / 0.9%
same,weight increase in the sorption step,"[1]; Relative humidity 80 %, second cycle",0.9 % / 0.9%
same,weight increase in the sorption step,"[1]; Relative humidity 95 %, first cycle",1.3%
same,weight increase in the sorption step,"[1]; Relative humidity 95 %, second cycle",1.4%
same,water uptake (hygroscopicity),[1]; at a high relative humidity of 80 %,about 0.9%
same,Solubility [g in 100 g of solvent],[2]; Temperature 36.9 °C,0.43 g in 100 g of solvent
same,Solubility [g in 100 g of solvent],[2]; Temperature 44.7 °C,0.50 g in 100 g of solvent
same,Solubility [g in 100 g of solvent],[2]; Temperature 60.0 °C,0.85 g in 100 g of solvent
same,relative thermodynamic stability,[3],thermodynamically most stable polymorph
same,relative thermodynamic stability,[3]; listed as polymorph 1,thermodynamically most stable
same,solubility in water,[4],low solubility in water
"CCOC(=O)[C@H](Cc1ccc(N)nc1)c1cn(C2CCCCC2)cn1.O=S(=O)(O)c1cccc2c(S(=O)(=O)O)cccc12 [naphthalene-1,5-disulfonic acid salt of (R)-3-(6-amino-pyridin-3-yl)-2-(1-cyclohexyl-1 H-imidazol-4-yl)-propionic acid-ethylester]",XRPD measurements at the beginning and after 14 days,[5],close to each other
same,enantiomeric purity,[6]; at the beginning of measurement,99.0%
same,increase of (S)-enantiomers,"[6]; storage condition 80°C and 80% relative humidity (D), 14 days",2.7%
same,enantiomeric purity,"[6]; storage condition (A) 50°C, 14 days",98.8%
same,enantiomeric purity,"[6]; storage condition (B) 50°C and 80% relative humidity, 14 days",98.8%
same,enantiomeric purity,"[6]; storage condition (C) 80°C, 14 days",99.0%
same,enantiomeric purity,"[6]; storage condition (D) 80°C and 80% relative humidity, 14 days",96.3%
same,increase of the (S)-enantiomers,"[6]; storage conditions 50°C (A) and 50°C and 80% relative humidity (B), 14 days",0.2%
same,change of enantiomeric purity,"[6]; storage conditions 80°C (C), 14 days",no change
